Each structure is given as a SMILES string.

What all share (type): in vivo, male C57/BL mice
In one test the test system is COX2. The test is described as follows: RT-qPCR of COX2 mRNA in brain tissue. Particulars: 72 h, three days of administration, compound 2 100 mg/kg, compound 1 50 mg/kg, P<0.001. On the procedure: (§1) Grouping and administration method: Male C57/BL mice weighing 23±1 g were randomly divided into sham operation group (SHAM), model group (MCAO), compound 2 group (100 mg/kg), and compound 1 group (50 mg/kg), with 10 mice in each group. Mice in the SHAM group underwent vascular isolation, but no […] was administered, and no treatment was given before or after surgery. The model group mice were constructed with MCAO models and were not treated before and after surgery. The treatment group was treated with compound 2 or compound 1 on the basis of the model group. Mice with a neurological score of 0 after reperfusion and those that died before 72 hours post-surgery were excluded. […]
(§2) To investigate the effect of compounds on the expression of inflammatory factors after ischemia-reperfusion, this study used immunofluorescence experiments to observe the expression of TNF-α, IL-1β, IL-6, iNOS, and COX2 proteins in brain tissue. […] The concentrations of TNF-α, IL-1β, and IL-6 in brain homogenate were detected by enzyme-linked immunosorbent assay (ELISA), and the expression level of TNF-α protein in brain tissue was detected by Western blot.
After 72 hours of ischemia-reperfusion, the mRNA expression levels of TNF-α, IL-1β, IL-6, iNOS, and COX2 in brain tissue were detected and analyzed by RT-qPCR. […]
A general note: Real-time PCR tracks product formation cycle by cycle.

The test system of the next test is iba1. Kind of test: iba1 immunofluorescence in brain tissue (microglia). The conditions noted are these: 72 h ischemia-reperfusion, three days of administration; compound 2 100 mg/kg, compound 1 50 mg/kg; MCAO group 303±23; mean±SEM, n=3. On the procedure: as §1
Microglia are resident phagocytic cells in the nervous system and are the primary defense system for stress and injury in central nervous cells. […] To investigate whether the compound has an effect on the activation and proliferation of microglia in the ischemia-reperfusion model, this study used immunofluorescence experiments to detect the fluorescence expression of iba1 in the brain tissues of the sham operation group (SHAM), model group (MCAO), compound 2 group, and compound 1 group. Then, the expression level of iba1 in microglia in brain tissue was detected by Western blot. […]

The test system of the next test is MCAO model mice. The test is described as follows: Rotating rod (balance rod) test of motor coordination after ischemia-reperfusion. As to the method: (§3) Grouping and administration method: Male C57/BL mice weighing 23±1 g were randomly divided into sham operation group (SHAM), model group (MCAO), compound 2 group (100 mg/kg), and compound 1 group (50 mg/kg), with 10 mice in each group. Mice in the SHAM group underwent vascular isolation, but no […] was administered, and no treatment was given before or after surgery. The model group mice were constructed with MCAO models and were not treated before and after surgery. The treatment group was treated with compound 2 or compound 1 on the basis of the model group. Mice with a neurological score of 0 after reperfusion and those that died before 72 hours post-surgery were excluded. The administration time for animal behavior tests was seven times at 0 h, 1 day, 2 days, 3 days, 4 days, 5 days, and 6 days after reperfusion, while the administration time for other experiments was three times at 0 h, 1 day, and 2 days after reperfusion. The drug was administered through the tail vein, and the sham operation group and model group were given equal amounts of saline.
The balance rod test was used to test the motor coordination of mice. The experiment was divided into four groups: sham operation group (SHAM), model group (MCAO), compound 2 group and compound 1 group. The effects of compound 2 on the recovery of behavioral function in mice after ischemia-reperfusion were comprehensively analyzed. The rotating rod test can test the motor coordination ability of mice. The experimental procedure is set to gradually accelerate the speed of the rotating rod from 10 rpm to 40 rpm within 300 seconds. Record the time that the mouse stays on the rotating stick. The mice were trained 3 days in advance. Select mice that can stay on the rotating rod for about 300 seconds for the next experiment. The time that the mice spent on the rotating rod before the model was constructed was selected as the pre-operative test value. The trained mice were subjected to MCA occlusion for 60 minutes and then reperfusion. Mice in the SHAM group, MCAO group, Compound 2 group, and Compound 1 group underwent rotating rod testing on days 1, 3, 5, and 7 post-surgeries, respectively, and the duration of their stay on the rotating rod was recorded.
After reperfusion for 1 to 3 days, the motor coordination ability continued to decline, but gradually recovered after 3 days, but the degree of recovery was extremely low.

A further test deals with TNF-α. Kind of test: TNF-α protein Western blot in brain tissue. The conditions noted are these: 72 h; for TNF-α protein expression reduced compared with MCAO group: three days of administration, compound 2 100 mg/kg, compound 1 50 mg/kg, P<0.001. On the procedure: as §3, §2
After 72 hours of ischemia-reperfusion, the expression level of TNF-α protein in brain tissue was detected by Western blot. […] In this experiment, β-actin was used as an internal reference protein. n=3, data are presented as mean±SEM, analyzed with one-way ANOVA, and subjected to Tukey's HSD test. *P<0.05, **P<0.01, ***P<0.001. ^#P<0.05, ^##P<0.01, ^###P<0.001. * indicates a comparison with the SHAM group, ^# indicates a comparison with the compound 2 group.

The next test concerns GFAP. Kind of test: GFAP protein Western blot in brain tissue. The conditions noted are these: for GFAP protein expression reduced compared with MCAO group: 72 h ischemia-reperfusion, three days of administration, compound 2 100 mg/kg, compound 1 50 mg/kg. On the procedure:
as §3
After 72 hours of ischemia-reperfusion, the protein expression level of GFAP, a marker of astrocytes in brain tissue, was detected with Western blot. The representative Western blot (WB) images of GFAP protein expression in the brain tissues of the sham operation group (SHAM), model group (MCAO), compound 2 group, and compound 1 group are shown in FIG. 6A, and the quantitative statistical results are shown in FIG. 6B. […] In this experiment, β-actin was used as an internal reference protein. n=3, data are mean±SEM, analyzed using one-way ANOVA and Tukey's HSD test. *P<0.05, **P<0.01, ***P<0.001. ^#P<0.05, ^##P<0.01, ^###P<0.001. * indicates comparison with the SHAM group, # indicates comparison with the compound 2 group.
For orientation: Immunoblotting shows a protein as a band on a membrane.

On to `O=C(O)c1cc(O)ccc1O` [compound 1], for which the “COX2 mRNA expression compared with MCAO group” value in the test on COX2 is given as “significantly reduced”. Besides, the “Number of iba1-positive cells” value in the test on iba1 is listed as 200±12 /mm^2. In the test on MCAO model mice (compound 1 50 mg/kg tail vein, time not stated), the “Motor coordination ability (time on rotating rod) compared with MCAO group” value is recorded as “improved”. The “TNF-α protein expression reduced compared with MCAO group” value with TNF-α came out at 20±10%. In the test on GFAP, the “GFAP protein expression reduced compared with MCAO group” value stood at 25±10%.

In the case of `O=C(O)c1cc(OP(=O)(O)O)ccc1OP(=O)(O)O` [compound 2], in the test with COX2, the “COX2 mRNA expression compared with MCAO group” value is “significantly reduced”. Also, the “Number of iba1-positive cells” value in the test on iba1 was 148±40 /mm^2. Moreover, in the test with MCAO model mice (at 5 and 7 days, compound 2 100 mg/kg tail vein, P<0.05), the “Motor coordination ability (time on rotating rod) compared with model group (MCAO)” value is “significantly improved”. Moreover, the “Motor coordination (time on rotating rod) compared with model group (MCAO)” value in the test on MCAO model mice (at 7 days of reperfusion, compound 2 100 mg/kg tail vein, P<0.001) is “significantly improved”. The “Motor coordination ability (time on rotating rod) compared with the compound 1 group” value in the test with MCAO model mice (compound 2 100 mg/kg vs compound 1 50 mg/kg, P<0.001) was “significantly improved”. The “TNF-α protein expression decreased compared with the compound 1 group” value in the test on TNF-α (compound 2 100 mg/kg vs compound 1 50 mg/kg, P<0.05) stood at 31±20%. The “TNF-α protein expression reduced compared with MCAO group” value with TNF-α was 40±12%. For the same molecule, the “GFAP protein expression reduced compared with the compound 1 group” value in the test on GFAP (72 h, compound 2 100 mg/kg vs compound 1 50 mg/kg, P<0.05) amounted to 45±10%. Besides, in the test with GFAP, the “GFAP protein expression reduced compared with MCAO group” value is 43±12%.
